From patent US20260265244A1, “HETEROCYCLIC COMPOUNDS AS STING ANTAGONISTS” (Boehringer Ingelheim International GmbH, priority 2022, published 2026)

What follows are compounds tested against T1, cGAMP binding domain of wild-type (GRR) human STING, residues 155-341 (Homo sapiens, UniProt Q86WV6, H232R) (assay: Increase of stability of STING protein against thermal denaturation, Differential Scanning Fluorimetry (DSF)).
T1 construct: His-TEV-hSTING (WT); TEV protease cleavage site (N); made in house; host or cells: E. coli BL21 DE3
T1 sequence (Q86WV6 with tags, fused parts or gaps H232R): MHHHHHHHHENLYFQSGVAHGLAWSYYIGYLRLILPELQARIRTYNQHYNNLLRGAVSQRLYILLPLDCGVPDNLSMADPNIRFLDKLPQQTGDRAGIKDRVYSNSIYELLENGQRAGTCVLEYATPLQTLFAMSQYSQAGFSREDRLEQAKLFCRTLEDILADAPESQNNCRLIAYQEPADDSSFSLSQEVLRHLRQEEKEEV
Experimental: Dye fluorescence is quenched in aqueous environment and increases upon association of the dye with the hydrophobic parts of the unfolding protein. […] The inflection point of the curve represents the “melting” temperature of the protein (Tm) which is calculated numerically using the Boltzmann equation.
Method: The thermal stability of the STING protein was measured using a specific expression construct of the cGAMP binding domain of wild-type (GRR) human STING comprising residues 155-341 and a N-terminal 8×His-tag (SEQ ID NO: 3) in assay buffer containing 20 mM Tris, 150 mM NaCl at pH7.5.
The assay uses Hard-Shell® PCR Plates 384-Well CLR/WHT (Catalog #HSP3805, BIO-RAD), Microseal® ‘B’ Adhesive Seals for PCR Plates (Catalog #MSB-1001, BIO-RAD) and was run on a CFX384 Real-Time System (Bio-Rad).
A DMSO stock solution of SYPRO orange (SIGMA S5692-500UL) was prepared.
Compound stock solutions (10 mM in DMSO) were diluted 1:2 in DMSO to an intermediate compound concentration of 5 mM and then further diluted 1:40 in assay buffer resulting in a compound concentration of 125 μM and 2.5% DMSO.
Fluorescent dye stock solution (5000×SYPRO Orange) was then mixed with target protein and buffer to a concentration of 15 uM Protein and 25×SYPRO Orange. 2 ul of this protein-dye-mixture was added to 8 ul compound solution. Final volume was 10 uL. 3-6 well positions were used as negative control (protein with 2% DMSO). The plates were prepared for duplicate measurement and centrifuged for 2 min at 1000 g. In the measurement, 160 cycles of 0.5° C. were used (temperature ramp 15 s/cycle, 15° C. to 95° C.).
Final Assay concentrations for compound characterization were as follows: 100 uM compound, 3 uM target protein, 5×SYPRO Orange, 2% DMSO in 10 ul. All dispensing steps were performed using a HamiltonStar pipetting robot (Hamilton).
Dissociation curves were processed in Bio-Rad CFX Manager. Peak type was set to “negative”. Compound codes for screen were assigned in the plate layout.
Two replicates of TM measurements were averaged, and the standard deviation was calculated. In cases of SD>1.5° C. the measurement was repeated.
The melting point (Tm) obtained for STING protein alone was subtracted from T obtained for protein incubated with ligand to generate ΔTm values.
Protein production and purification: The protein used for the biophysical experiments was a recombinant human STING protein comprising its cytosolic ectodomain. A codon optimized DNA sequence (for expression in Escherichia coli) encoding amino acid residues 155 to 341 (Swiss Prot Q86WV6) of human STING (WT) was synthesized by GeneArt (Regensburg, Germany) and inserted into a pET17b E. coli expression vector. The protein construct encodes an N-terminal 8×His-tag (SEQ ID NO: 3) followed by tobacco etch virus protease (TEV) cleavage site and the above STING gene sequence. The resulting protein sequence for the used STING variant is listed below:
For expression of recombinant human STING above construct was transformed into E. coli BL21 DE3 strain and grown in shake flasks in LB-medium at 37° C. Expression was induced by addition of isopropyl β-D-1-thiogalactopyranoside to a final concentration of 1 mM and cultures shaken overnight. Cell pellets were centrifuged and stored at −70° C. until further use. Protein was purified by cell thawing in lysis buffer (20 mM TRIS-HCl, pH 8, 300 mM NaCl, 2 mM mercaptoethanol, 20 mM imidazole, Complete Protease Inhibitor (Roche) and DNase (Roche)), followed by metal affinity purification using Ni-NTA resins and elution buffer consisting of 20 mM TRIS-HCl, pH 8, 300 mM NaCl, 2 mM mercaptoethanol, 300 mM imidazole and size exclusion chromatography in running buffer (20 mM TRIS-HCl, pH 8, 100 mM NaCl, 2 mM DTT). The peak fraction was collected and concentrated to 2.5 mg/mL.

Structure (SMILES) | DSF [K]
Cc1c(C(C)C)c(-c2cccc3nn(C[C@H](O)c4ccccc4)cc23)nn1-c1cc2cn(C)nc2nc1OC(C)C [Example 23, (1R)-2-(4-{5-methyl-1-[2-methyl-6-(propan-2-yloxy)-2H-pyrazolo[3,4-b]pyridin-5-yl]-4-(propan-2-yl)-1H-pyrazol-3-yl}-2H-indazol-2-yl)-1-phenylethan-1-ol] | 25
Cc1nc2nn(Cc3cnn(C)c3)cc2cc1-n1nc(-c2cccc3nn(C[C@H](O)c4ccccc4)cc23)c(C(C)C)c1C [Example 24, (1R)-2-[4-(5-methyl-1-{6-methyl-2-[(1-methyl-1H-pyrazol-4-yl)methyl]-2H-pyrazolo[3,4-b]pyridin-5-yl}-4-(propan-2-yl)-1H-pyrazol-3-yl)-2H-indazol-2-yl]-1-phenylethan-1-ol] | 30
Cc1ccc([C@@H](O)Cn2cc3c(-c4nc(-c5cc6cn(C)nc6nc5C(C)C)n(C)c4C4CC4)cccc3n2)cc1 [Example 25, (1R)-2-(4-{5-cyclopropyl-1-methyl-2-[2-methyl-6-(propan-2-yl)-2H-pyrazolo[3,4-b]pyridin-5-yl]-1H-imidazol-4-yl}-2H-indazol-2-yl)-1-(4-methylphenyl)ethan-1-ol] | 30
Cc1c(C(C)C)c(-c2cccc3nn(C[C@H](O)c4ccccc4)cc23)nn1-c1cc2cn(C)nc2nc1CN1CCOCC1 [Example 26, (1R)-2-[4-(5-methyl-1-{2-methyl-6-[(morpholin-4-yl)methyl]-2H-pyrazolo[3,4-b]pyridin-5-yl}-4-(propan-2-yl)-1H-pyrazol-3-yl)-2H-indazol-2-yl]-1-phenylethan-1-ol] | 26
Cc1nc2nn(C)cc2cc1-n1nc(-c2cccc3nn(C[C@H](OCF)c4ccccc4)cc23)c(C(C)C)c1C [Example 27, 4-(1-{2,6-dimethyl-2H-pyrazolo[3,4-b]pyridin-5-yl}-5-methyl-4-(propan-2-yl)-1H-pyrazol-3-yl)-2-[(2R)-2-(fluoromethoxy)-2-phenylethyl]-2H-indazole] | 25
Cn1c(-c2cc3cn(CCCN4CCCC4=O)nc3nc2C2CC2)nc(-c2cccc3nn(C[C@H](O)c4ccccc4)cc23)c1C1CC1 [Example 28, 1-{3-[6-cyclopropyl-5-(5-cyclopropyl-4-{2-[(2R)-2-hydroxy-2-phenylethyl]-2H-indazol-4-yl}-1-methyl-1H-imidazol-2-yl)-2H-pyrazolo[3,4-b]pyridin-2-yl]propyl}pyrrolidin-2-one] | 31
Cc1c(C2CC2)c(-c2cccc3nn(C[C@H](O)c4ccccc4)cc23)nn1-c1cc2cn(C)nc2nc1C1CC1 [Example 29, (1R)-2-[4-(4-cyclopropyl-1-{6-cyclopropyl-2-methyl-2H-pyrazolo[3,4-b]pyridin-5-yl}-5-methyl-1H-pyrazol-3-yl)-2H-indazol-2-yl]-1-phenylethan-1-ol] | 29
CCO[C@@H](Cn1cc2c(-c3nn(-c4cc5cn(C)nc5nc4C)c(C)c3C(C)C)cccc2n1)c1ccccc1 [Example 30, 4-(1-{2,6-dimethyl-2H-pyrazolo[3,4-b]pyridin-5-yl}-5-methyl-4-(propan-2-yl)-1H-pyrazol-3-yl)-2-[(2R)-2-ethoxy-2-phenylethyl]-2H-indazole] | 25
Cc1nc2nn(CCCO)cc2cc1-n1nc(-c2cccc3nn(C[C@H](O)c4ccccc4)cc23)c(C(C)C)c1C [Example 32, 3-[5-(3-{2-[(2R)-2-hydroxy-2-phenylethyl]-2H-indazol-4-yl}-5-methyl-4-(propan-2-yl)-1H-pyrazol-1-yl)-6-methyl-2H-pyrazolo[3,4-b]pyridin-2-yl]propan-1-ol] | 28
CC(C)n1cc2cc(-c3nc(-c4cccc5nn(C[C@H](O)c6ccccc6)cc45)c(C4CC4)n3C)c(C3CC3)nc2n1 [Example 33, (1R)-2-(4-{5-cyclopropyl-2-[6-cyclopropyl-2-(propan-2-yl)-2H-pyrazolo[3,4-b]pyridin-5-yl]-1-methyl-1H-imidazol-4-yl}-2H-indazol-2-yl)-1-phenylethan-1-ol] | 31
